Molecules are shown by their SMILES.

Inhibition data for 9 compounds are collected here from patent US10308643B2, “Heterocyclic compound” (Takeda Pharmaceutical Company Limited, priority 2015, dated 2019).

Common to all, as to format: biochemical
The target of assay [1] is T1, HDAC6 enzyme (Homo sapiens, UniProt Q9UBN7).
T1 construct: transducing full length HDAC1 and HDAC6 genes into Sf-9 insect cells; GST; purchased SignalChem; host or cells: Sf-9 insect cells
T1 sequence (Q9UBN7 1-1215): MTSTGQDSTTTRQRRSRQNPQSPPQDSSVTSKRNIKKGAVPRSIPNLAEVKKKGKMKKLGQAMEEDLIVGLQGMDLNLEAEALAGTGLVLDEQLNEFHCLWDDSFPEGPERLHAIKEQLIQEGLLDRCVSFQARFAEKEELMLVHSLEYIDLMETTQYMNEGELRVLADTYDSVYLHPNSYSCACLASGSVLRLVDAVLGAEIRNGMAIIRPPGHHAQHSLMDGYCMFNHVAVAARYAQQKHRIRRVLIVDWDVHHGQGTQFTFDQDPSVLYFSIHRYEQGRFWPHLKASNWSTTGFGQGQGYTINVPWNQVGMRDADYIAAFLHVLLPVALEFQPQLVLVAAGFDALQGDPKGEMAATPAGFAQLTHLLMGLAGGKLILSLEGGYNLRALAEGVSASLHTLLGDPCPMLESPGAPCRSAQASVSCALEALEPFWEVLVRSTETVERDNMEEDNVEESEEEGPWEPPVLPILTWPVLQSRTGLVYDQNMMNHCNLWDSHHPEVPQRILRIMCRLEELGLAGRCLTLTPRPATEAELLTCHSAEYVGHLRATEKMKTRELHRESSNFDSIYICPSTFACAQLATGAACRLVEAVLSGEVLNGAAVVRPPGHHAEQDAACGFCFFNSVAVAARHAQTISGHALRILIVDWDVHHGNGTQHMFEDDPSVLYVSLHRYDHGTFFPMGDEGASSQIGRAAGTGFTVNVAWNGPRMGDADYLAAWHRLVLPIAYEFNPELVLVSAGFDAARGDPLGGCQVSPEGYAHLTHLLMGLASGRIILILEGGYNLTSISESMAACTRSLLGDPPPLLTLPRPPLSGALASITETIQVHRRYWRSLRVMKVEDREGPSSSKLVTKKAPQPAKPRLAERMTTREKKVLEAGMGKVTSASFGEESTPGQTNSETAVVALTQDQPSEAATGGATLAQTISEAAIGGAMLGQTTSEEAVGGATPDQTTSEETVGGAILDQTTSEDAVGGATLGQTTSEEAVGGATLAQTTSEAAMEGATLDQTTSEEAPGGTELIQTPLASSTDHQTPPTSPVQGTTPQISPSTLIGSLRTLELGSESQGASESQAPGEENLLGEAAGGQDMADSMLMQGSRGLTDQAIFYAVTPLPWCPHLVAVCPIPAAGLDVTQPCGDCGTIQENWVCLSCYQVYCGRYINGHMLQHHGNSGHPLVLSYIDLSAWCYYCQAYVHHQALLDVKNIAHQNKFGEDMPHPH
Nature of the assay: HDAC1/6 Enzyme Inhibitory Assay (HDAC-Glo I/II Assay kit), HDAC6. The following applies: 1 μM test compound; wells without enzyme = 100% inhibition; read-out: HDAC6 inhibitory rate (%) (1 μM). The procedure, abridged: (§1)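 Full-length human HDAC1 or HDAC6, expressed in Sf-9 cells and GST-purified, was preincubated with compound for 60 min at room temperature in Tris-HCl pH 7.5 buffer with MgCl2, KCl, NaCl, glutathione and Tween-20. HDAC-Glo substrate-developer was then added, and luminescence was read after 20 min. Inhibition was referenced to no-enzyme wells as 100%.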

Assay [2] addresses T2, HDAC1 enzyme (Homo sapiens, UniProt Q13547).
T2 construct: transducing full length HDAC1 and HDAC6 genes into Sf-9 insect cells; GST; purchased SignalChem; host or cells: Sf-9 insect cells
Nature of the assay: HDAC1/6 Enzyme Inhibitory Assay (HDAC-Glo I/II Assay kit), HDAC1. The following applies: 1 μM test compound; wells without enzyme = 100% inhibition; read-out: HDAC1 inhibitory rate (%) (1 μM). The procedure, abridged:
as §1

In assay [3] the target is T3, HDAC9 enzyme (Homo sapiens, UniProt Q9UKV0).
T3 construct: transducing full length HDAC9 gene into Sf-9 insect cells; made in house; host or cells: Sf-9 insect cells
T3 sequence (Q9UKV0 whole entry, species assumed): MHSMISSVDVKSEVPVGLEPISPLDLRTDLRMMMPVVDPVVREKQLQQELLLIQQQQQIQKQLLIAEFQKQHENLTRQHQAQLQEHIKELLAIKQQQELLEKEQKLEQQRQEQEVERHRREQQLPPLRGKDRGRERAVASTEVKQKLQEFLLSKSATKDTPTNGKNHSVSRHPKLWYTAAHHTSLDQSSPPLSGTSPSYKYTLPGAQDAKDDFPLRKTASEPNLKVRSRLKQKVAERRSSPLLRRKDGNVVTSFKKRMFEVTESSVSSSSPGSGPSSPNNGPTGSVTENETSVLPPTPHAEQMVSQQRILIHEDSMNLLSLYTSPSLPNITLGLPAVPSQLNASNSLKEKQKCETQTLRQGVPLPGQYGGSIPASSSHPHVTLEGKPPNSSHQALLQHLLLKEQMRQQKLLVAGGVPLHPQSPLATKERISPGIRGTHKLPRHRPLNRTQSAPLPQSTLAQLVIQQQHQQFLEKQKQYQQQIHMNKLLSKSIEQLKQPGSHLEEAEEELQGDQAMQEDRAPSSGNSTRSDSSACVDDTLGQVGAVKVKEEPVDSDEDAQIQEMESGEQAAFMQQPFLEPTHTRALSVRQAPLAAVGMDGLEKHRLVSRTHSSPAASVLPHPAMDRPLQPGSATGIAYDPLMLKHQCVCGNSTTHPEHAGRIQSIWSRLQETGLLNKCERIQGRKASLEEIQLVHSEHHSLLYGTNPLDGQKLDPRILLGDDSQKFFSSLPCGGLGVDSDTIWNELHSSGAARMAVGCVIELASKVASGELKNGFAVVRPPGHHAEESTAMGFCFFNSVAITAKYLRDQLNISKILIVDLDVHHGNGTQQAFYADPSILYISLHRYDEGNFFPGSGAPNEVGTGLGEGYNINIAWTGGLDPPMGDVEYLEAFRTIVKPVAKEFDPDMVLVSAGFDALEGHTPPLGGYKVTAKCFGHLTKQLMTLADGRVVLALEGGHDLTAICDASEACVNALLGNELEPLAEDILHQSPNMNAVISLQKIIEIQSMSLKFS
Briefly: HDAC9 Enzyme Inhibitory Assay (HDAC-Glo class IIa). As to conditions: 1 μM test compound; wells without enzyme = 100% inhibition; read-out: HDAC9 inhibitory rate (%) (1 μM). The procedure, abridged: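 Luminescent HDAC-Glo class IIa readout after a 20 min room-temperature reaction; relative inhibition referenced to enzyme-free wells as 100%. Test compound first preincubated 60 min with Sf-9-expressed, Ni-NTA-purified full-length HDAC9 in pH 7.5 Tris buffer containing 135 mM NaCl, 0.6 mM glutathione and 0.01% Tween-20.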

T2 sequence (Q13547 whole entry): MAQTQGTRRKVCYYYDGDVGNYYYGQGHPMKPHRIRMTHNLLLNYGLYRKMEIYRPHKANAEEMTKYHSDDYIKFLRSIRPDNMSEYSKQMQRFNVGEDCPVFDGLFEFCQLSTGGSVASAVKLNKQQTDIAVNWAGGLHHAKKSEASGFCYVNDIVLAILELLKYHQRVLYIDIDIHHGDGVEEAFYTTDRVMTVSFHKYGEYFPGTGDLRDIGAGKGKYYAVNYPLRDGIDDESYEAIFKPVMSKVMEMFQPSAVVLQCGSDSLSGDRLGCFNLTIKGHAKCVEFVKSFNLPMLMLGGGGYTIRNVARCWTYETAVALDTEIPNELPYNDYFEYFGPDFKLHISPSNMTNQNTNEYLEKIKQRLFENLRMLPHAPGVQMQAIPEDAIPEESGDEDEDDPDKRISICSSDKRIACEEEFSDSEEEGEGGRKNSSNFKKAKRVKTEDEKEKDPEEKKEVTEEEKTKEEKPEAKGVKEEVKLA

In the case of `CC(=O)N1CCC(N2Cc3ncc(-c4noc(C(F)(F)F)n4)cc3C2=O)CC1` [Example 38, 6-(1-acetylpiperidin-4-yl)-3-(5-(trifluoromethyl)-1,2,4-oxadiazol-3-yl)-6,7-dihydro-5H-pyrrolo[3,4-b]pyridin-5-one], the inhibition at 1 µM in assay [1] stood at 90%; in assay [2], 25%; in assay [3] it was 82%.

As for `CC(=O)N1CCCC(N2Cc3ncc(-c4noc(C(F)(F)F)n4)cc3C2=O)C1` (stereo not drawn) [Example 39, 6-(1-acetylpiperidin-3-yl)-3-(5-(trifluoromethyl)-1,2,4-oxadiazol-3-yl)-6,7-dihydro-5H-pyrrolo[3,4-b]pyridin-5-one], the inhibition at 1 µM in assay [1] worked out at 91%; in assay [2], 23%; in assay [3], 86%.

Take `O=C(c1ccccc1)N1CCCC(N2Cc3ncc(-c4noc(C(F)(F)F)n4)cc3C2=O)C1` (stereo not drawn) [Example 40, 6-(1-benzoylpiperidin-3-yl)-3-(5-(trifluoromethyl)-1,2,4-oxadiazol-3-yl)-6,7-dihydro-5H-pyrrolo[3,4-b]pyridin-5-one]: the inhibition at 1 µM in assay [1] was 95%; in assay [2], 56%; in assay [3], 97%.

For `O=C(Cc1ccc(F)cc1)N1CCCC(N2Cc3ncc(-c4noc(C(F)(F)F)n4)cc3C2=O)C1` (stereo not drawn) [Example 41, 6-(1-((4-fluorophenyl)acetyl)piperidin-3-yl)-3-(5-(trifluoromethyl)-1,2,4-oxadiazol-3-yl)-6,7-dihydro-5H-pyrrolo[3,4-b]pyridin-5-one], the results for the inhibition at 1 µM in assay [1], in assay [2] and in assay [3] were 93%, 37% and 94%, respectively.

Consider `CC1(C(=O)N[C@@H]2CCCC[C@H]2N2Cc3ccc(-c4noc(C(F)(F)F)n4)cc3C2=O)COC1` [Example 42, 3-methyl-N-((1R,2R)-2-(1-oxo-6-(5-(trifluoromethyl)-1,2,4-oxadiazol-3-yl)-1,3-dihydro-2H-isoindol-2-yl)cyclohexyl)oxetane-3-carboxamide], for which the inhibition at 1 µM in assay [1] was 100%; in assay [2], 15%; in assay [3] it was 41%.

Consider `NC(=O)N1CC[C@@H](N2Cc3ccc(-c4noc(C(F)(F)F)n4)cc3C2=O)[C@H](c2ccccc2)C1` [Example 43, (3R,4R)-4-(1-oxo-6-(5-(trifluoromethyl)-1,2,4-oxadiazol-3-yl)-1,3-dihydro-2H-isoindol-2-yl)-3-phenylpiperidine-1-carboxamide], for which the inhibition at 1 µM came out at 99% in assay [1], 90% in assay [2] and 96% in assay [3].

Take `CCNC(=O)N1CC[C@@H](N2Cc3ccc(-c4noc(C(F)(F)F)n4)cc3C2=O)[C@H](c2ccccc2)C1` [Example 44, (3R,4R)-N-ethyl-4-(1-oxo-6-(5-(trifluoromethyl)-1,2,4-oxadiazol-3-yl)-1,3-dihydro-2H-isoindol-2-yl)-3-phenylpiperidine-1-carboxamide]: the inhibition at 1 µM in assay [1] was 98%; in assay [2], 88%; in assay [3] it was 95%.

For `O=C1C[C@](Cc2ccccc2)(N2Cc3ccc(-c4noc(C(F)(F)F)n4)cc3C2=O)CN1` [Example 61, 2-((3S)-3-benzyl-5-oxopyrrolidin-3-yl)-6-(5-(trifluoromethyl)-1,2,4-oxadiazol-3-yl)isoindolin-1-one], the inhibition at 1 µM stood at 99% in assay [1], 41% in assay [2] and 93% in assay [3].

In the case of `C[C@H](c1ccccc1)N1CC[C@@H]2CC[C@@H](N3Cc4ccc(-c5noc(C(F)(F)F)n5)cc4C3=O)[C@@H]21` [Example 62, 2-((3aS,6R,6aR)-1-((1R)-1-phenylethyl)octahydrocyclopenta[b]pyrrol-6-yl)-6-(5-(trifluoromethyl)-1,2,4-oxadiazol-3-yl)isoindolin-1-one], the inhibition at 1 µM amounted to 98% in assay [1], 46% in assay [2] and 89% in assay [3].
